# Measured values as given in article PMC12073402, “A Selective MAP3K1 Inhibitor Facilitates Discovery of NPM1 as a Member of the Network” (Molecules, 2025).
# What was measured:
# Assay in all cases: KiNativ kinome profiling in PANC-1 lysate
# Assay type in all cases: binding
# YANK3 = molecular target: T1, YANK3 (Homo sapiens, UniProt Q86UX6); conditions: Lys2
# T1 construct: endogenous in cells; host or cells: PANC-1 cell lysate
# Method in brief: (§1)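 PANC-1 lysates were incubated with 5 μM inhibitor or DMSO, then labeled with a desthiobiotin-ATP acyl-phosphate probe that biotinylates conserved kinase lysines. Tryptic peptides were streptavidin-enriched and quantified by LC-MS/MS, reported as % change in MS signal from duplicate treated and duplicate control samples.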
# LATS2 = molecular target: T2, LATS2 (Homo sapiens, UniProt Q9NRM7)
# T2 construct: we opted to conduct a kinome screen (KiNativ) in PANC-1 cell lysates; endogenous in cells; host or cells: PANC-1 cell lysate
# Method in brief: as §1
# MAP3K4 = molecular target: T3, MAP3K4 (Homo sapiens, UniProt Q9Y6R4)
# T3 construct: endogenous in cells; host or cells: PANC-1 cell lysate
# Method in brief: as §1
# MAP3K1 = molecular target: T4, MAP3K1 (Homo sapiens, UniProt Q13233)
# T4 construct: endogenous in cells; host or cells: PANC-1 cell lysate
# Method in brief: as §1
# GAK = molecular target: T5, GAK (Homo sapiens, UniProt O14976); conditions: Lys2
# T5 construct: endogenous in cells; host or cells: PANC-1 lysate
# Method in brief: as §1
# SRPK2 = molecular target: T6, SRPK2 (Homo sapiens, UniProt P78362); conditions: Lys2
# T6 construct: endogenous in cells; host or cells: PANC-1 cell lysate
# Method in brief: as §1
# JAK1 domain2 = molecular target: T7, JAK1 domain2 (Homo sapiens, UniProt P23458)
# T7 construct: we opted to conduct a kinome screen (KiNativ) in PANC-1 cell lysates; endogenous in cells; host or cells: PANC-1 cell lysate
# Method in brief: as §1
# PIK3CB = molecular target: T8, PIK3CB (Homo sapiens, UniProt P42338); conditions: ATP
# T8 construct: endogenous in cells; host or cells: PANC-1 cell lysate
# Method in brief: as §1
# SNRK = molecular target: T9, SNRK (Homo sapiens, UniProt Q9NRH2)
# T9 construct: endogenous in cells; host or cells: PANC-1 cell lysate
# Method in brief: as §1
# CDK2 = molecular target: T10, CDK2 (Homo sapiens, UniProt P24941)
# T10 construct: endogenous in cells; host or cells: PANC-1 cell lysate
# Method in brief: as §1
# CK1g3 = molecular target: T11, CK1g3 (Homo sapiens, UniProt Q9Y6M4); conditions: Lys2
# T11 construct: endogenous in cells; host or cells: PANC-1 cell lysate
# Method in brief: as §1
# CDK7 = molecular target: T12, CDK7 (Homo sapiens, UniProt P50613)
# T12 construct: endogenous in cells; host or cells: PANC-1 cell lysate
# Method in brief: as §1
# NEK7 = molecular target: T13, NEK7 (Homo sapiens, UniProt Q8TDX7); conditions: Lys1
# T13 construct: endogenous in cells; host or cells: PANC-1 cell lysate
# Method in brief: as §1
# PKCa, PKCb = conditions: 5 µM; Lys2; DLKLDNVMLDSEGHIK
# Method in brief: as §1
# STLK6 = molecular target: T14, STLK6 (Homo sapiens, UniProt Q9C0K7); conditions: Lys1
# T14 construct: endogenous in cells; host or cells: PANC-1 cell lysate
# Method in brief: as §1
# NEK1 = molecular target: T15, NEK1 (Homo sapiens, UniProt Q96PY6)
# T15 construct: endogenous in cells; host or cells: PANC-1 cell lysate
# Method in brief: as §1
# ITPK1 = molecular target: T16, ITPK1 (Homo sapiens, UniProt Q13572); conditions: ATP Loop
# T16 construct: we opted to conduct a kinome screen (KiNativ) in PANC-1 cell lysates; endogenous in cells; host or cells: PANC-1 cell lysate
# Method in brief: as §1
# PLK2 = molecular target: T17, PLK2 (Homo sapiens, UniProt Q9NYY3); conditions: Lys2
# T17 construct: endogenous in cells; host or cells: PANC-1 cell lysate
# Method in brief: as §1
# CDK6 = molecular target: T18, CDK6 (Homo sapiens, UniProt Q00534); conditions: Lys2
# T18 construct: endogenous in cells; host or cells: PANC-1 cell lysate
# Method in brief: as §1
# CaMK1a = molecular target: T19, CaMK1a (Homo sapiens, UniProt Q14012); conditions: Lys1
# T19 construct: endogenous in cells; host or cells: PANC-1 cell lysate
# Method in brief: as §1
# [1] = system: RSK1 domain1, RSK2 domain1, RSK3 domain1; conditions: 5 µM; Lys2; DLKPENILLDEEGHIK
# Method in brief: as §1
# MAP3K5 = molecular target: T20, MAP3K5 (Homo sapiens, UniProt Q99683); conditions: Lys2
# T20 construct: endogenous in cells; host or cells: PANC-1 cell lysate
# Method in brief: as §1
# PIP4K2C = molecular target: T21, PIP4K2C (Homo sapiens, UniProt Q8TBX8); conditions: ATP
# T21 construct: endogenous in cells; host or cells: PANC-1 cell lysate
# Method in brief: as §1
# p70S6K = molecular target: T22, p70S6K (Homo sapiens, UniProt P23443); conditions: Lys2
# T22 construct: endogenous in cells; host or cells: PANC-1 cell lysate
# Method in brief: as §1
# T4 sequence (Q13233 whole entry): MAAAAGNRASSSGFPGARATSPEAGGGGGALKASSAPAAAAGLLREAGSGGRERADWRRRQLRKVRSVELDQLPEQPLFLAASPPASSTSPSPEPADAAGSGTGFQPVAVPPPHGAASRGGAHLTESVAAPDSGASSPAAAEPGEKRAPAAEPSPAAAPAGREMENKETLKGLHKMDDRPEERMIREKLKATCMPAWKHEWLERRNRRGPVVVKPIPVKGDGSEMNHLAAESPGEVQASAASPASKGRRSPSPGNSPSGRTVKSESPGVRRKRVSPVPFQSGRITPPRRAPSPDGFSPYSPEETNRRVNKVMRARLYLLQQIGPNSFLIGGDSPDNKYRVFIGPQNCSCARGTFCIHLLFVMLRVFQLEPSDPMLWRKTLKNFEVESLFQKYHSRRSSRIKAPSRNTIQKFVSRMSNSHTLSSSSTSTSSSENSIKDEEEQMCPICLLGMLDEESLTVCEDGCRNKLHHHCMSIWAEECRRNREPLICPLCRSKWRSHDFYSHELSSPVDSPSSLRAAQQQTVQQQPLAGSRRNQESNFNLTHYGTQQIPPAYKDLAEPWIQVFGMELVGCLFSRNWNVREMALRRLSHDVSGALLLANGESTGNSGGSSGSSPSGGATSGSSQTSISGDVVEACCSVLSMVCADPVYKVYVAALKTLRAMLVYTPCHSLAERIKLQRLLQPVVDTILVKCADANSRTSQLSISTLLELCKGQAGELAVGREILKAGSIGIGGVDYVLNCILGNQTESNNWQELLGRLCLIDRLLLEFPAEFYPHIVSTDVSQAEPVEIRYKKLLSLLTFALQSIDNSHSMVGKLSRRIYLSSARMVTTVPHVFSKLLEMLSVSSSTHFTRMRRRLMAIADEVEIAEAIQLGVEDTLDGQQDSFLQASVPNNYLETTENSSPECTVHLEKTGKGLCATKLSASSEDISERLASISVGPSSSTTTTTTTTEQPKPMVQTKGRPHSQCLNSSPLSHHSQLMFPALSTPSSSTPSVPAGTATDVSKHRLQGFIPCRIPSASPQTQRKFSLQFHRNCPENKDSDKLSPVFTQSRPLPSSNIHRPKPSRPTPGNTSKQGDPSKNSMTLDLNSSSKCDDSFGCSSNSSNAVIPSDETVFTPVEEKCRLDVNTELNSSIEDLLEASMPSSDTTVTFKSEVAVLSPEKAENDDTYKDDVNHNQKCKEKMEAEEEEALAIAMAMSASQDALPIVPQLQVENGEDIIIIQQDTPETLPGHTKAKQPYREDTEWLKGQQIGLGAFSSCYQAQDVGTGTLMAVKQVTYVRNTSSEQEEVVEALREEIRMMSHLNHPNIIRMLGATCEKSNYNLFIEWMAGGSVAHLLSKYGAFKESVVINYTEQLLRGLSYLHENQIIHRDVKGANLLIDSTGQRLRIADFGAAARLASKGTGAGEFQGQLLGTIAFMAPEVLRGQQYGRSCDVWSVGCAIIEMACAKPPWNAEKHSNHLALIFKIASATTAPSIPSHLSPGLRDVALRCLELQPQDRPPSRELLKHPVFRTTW
# T21 sequence (Q8TBX8 whole entry): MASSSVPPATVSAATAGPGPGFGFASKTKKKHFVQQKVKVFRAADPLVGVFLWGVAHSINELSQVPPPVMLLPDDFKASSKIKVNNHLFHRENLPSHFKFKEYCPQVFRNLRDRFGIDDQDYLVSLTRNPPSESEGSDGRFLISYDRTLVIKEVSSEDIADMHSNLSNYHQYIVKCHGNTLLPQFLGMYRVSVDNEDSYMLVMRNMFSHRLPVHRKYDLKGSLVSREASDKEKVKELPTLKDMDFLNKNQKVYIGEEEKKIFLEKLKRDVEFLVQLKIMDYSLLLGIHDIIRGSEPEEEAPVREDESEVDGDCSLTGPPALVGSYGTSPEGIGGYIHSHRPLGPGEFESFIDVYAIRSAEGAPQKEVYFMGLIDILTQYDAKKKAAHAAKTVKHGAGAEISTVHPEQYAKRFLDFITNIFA
# T7 sequence (P23458 whole entry, the tested form may be a part): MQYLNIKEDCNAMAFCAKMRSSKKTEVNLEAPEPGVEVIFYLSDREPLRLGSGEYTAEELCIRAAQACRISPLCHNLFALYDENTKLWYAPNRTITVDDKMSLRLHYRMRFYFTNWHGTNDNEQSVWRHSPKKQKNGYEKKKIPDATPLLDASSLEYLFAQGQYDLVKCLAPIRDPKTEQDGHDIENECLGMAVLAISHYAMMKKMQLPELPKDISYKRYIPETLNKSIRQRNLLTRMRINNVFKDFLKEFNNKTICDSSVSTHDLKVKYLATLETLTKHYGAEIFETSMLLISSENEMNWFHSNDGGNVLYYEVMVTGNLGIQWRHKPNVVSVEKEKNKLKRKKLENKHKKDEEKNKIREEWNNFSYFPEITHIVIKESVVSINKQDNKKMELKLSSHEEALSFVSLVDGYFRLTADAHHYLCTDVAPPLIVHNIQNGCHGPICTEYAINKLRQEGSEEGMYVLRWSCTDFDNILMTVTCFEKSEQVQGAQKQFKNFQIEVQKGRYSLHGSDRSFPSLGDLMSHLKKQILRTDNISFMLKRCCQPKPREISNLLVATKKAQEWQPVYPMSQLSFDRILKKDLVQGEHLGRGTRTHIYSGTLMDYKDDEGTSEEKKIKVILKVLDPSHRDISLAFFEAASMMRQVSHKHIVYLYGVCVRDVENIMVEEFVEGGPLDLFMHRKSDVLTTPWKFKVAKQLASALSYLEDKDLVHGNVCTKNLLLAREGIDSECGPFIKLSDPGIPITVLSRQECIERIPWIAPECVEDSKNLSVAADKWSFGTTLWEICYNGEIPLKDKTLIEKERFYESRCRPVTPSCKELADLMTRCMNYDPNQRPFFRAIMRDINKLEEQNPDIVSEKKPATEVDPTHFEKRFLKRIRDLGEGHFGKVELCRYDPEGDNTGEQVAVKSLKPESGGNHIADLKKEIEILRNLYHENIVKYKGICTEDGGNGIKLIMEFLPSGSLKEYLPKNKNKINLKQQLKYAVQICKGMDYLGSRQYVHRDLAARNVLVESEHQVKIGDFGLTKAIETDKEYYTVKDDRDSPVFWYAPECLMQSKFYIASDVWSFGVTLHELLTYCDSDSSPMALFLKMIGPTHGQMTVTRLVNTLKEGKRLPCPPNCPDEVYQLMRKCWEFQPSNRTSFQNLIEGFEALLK
# T12 sequence (P50613 whole entry): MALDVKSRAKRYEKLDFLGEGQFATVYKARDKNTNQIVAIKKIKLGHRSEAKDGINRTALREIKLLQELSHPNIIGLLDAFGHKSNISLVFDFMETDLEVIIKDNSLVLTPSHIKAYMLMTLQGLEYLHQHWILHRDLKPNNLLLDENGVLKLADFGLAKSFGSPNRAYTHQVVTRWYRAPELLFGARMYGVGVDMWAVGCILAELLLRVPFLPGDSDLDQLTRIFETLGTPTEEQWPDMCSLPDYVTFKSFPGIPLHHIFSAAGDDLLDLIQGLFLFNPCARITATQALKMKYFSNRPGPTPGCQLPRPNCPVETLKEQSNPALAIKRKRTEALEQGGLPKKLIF
# T15 sequence (Q96PY6 whole entry): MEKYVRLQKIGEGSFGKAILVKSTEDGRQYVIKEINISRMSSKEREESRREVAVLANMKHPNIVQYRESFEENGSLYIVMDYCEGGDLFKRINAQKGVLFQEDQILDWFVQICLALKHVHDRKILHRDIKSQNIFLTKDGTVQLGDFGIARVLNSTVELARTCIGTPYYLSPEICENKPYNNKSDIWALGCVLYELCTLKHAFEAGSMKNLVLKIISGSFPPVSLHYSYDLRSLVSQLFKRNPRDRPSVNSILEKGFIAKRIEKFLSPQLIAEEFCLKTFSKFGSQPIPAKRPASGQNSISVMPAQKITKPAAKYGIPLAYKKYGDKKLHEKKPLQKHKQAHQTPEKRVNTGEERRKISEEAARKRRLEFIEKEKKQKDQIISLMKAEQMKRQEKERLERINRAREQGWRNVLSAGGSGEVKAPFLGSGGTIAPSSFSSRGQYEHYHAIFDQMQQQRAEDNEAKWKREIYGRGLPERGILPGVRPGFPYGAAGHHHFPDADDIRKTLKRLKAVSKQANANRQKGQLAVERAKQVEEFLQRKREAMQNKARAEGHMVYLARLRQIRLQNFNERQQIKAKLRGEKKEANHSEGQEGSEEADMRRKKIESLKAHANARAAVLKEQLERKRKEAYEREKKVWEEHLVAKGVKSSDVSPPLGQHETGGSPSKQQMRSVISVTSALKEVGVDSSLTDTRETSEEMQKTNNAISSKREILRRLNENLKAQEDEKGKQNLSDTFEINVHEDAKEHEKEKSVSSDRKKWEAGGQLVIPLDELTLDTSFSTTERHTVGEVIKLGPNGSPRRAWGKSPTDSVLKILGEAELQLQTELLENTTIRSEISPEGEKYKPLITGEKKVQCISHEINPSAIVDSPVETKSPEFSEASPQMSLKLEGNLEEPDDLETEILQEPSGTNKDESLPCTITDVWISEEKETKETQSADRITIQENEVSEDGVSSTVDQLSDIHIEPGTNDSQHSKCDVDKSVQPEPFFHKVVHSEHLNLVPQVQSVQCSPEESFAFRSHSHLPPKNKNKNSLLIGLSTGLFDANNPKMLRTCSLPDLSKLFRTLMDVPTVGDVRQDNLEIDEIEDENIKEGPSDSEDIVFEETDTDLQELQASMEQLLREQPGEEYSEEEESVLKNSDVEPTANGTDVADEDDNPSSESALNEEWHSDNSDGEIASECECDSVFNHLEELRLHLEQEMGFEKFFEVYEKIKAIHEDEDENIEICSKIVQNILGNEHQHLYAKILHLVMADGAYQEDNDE
# T16 sequence (Q13572 whole entry): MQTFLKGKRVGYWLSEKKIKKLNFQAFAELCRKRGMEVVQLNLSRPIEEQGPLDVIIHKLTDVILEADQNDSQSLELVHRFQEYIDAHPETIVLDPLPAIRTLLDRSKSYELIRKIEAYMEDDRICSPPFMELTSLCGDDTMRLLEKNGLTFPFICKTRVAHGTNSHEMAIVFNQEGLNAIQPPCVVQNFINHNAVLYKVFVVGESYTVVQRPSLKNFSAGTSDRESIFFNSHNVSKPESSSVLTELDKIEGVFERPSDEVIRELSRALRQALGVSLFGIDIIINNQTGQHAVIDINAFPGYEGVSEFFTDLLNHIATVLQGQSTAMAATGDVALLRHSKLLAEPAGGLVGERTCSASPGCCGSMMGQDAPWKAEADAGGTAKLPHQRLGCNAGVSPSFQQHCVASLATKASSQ
structure (smiles),measurement,setting,value
"Cn1cc(-c2cnc3ccc(NC(=O)Nc4ccc(F)c(C(F)(F)F)c4)cc3n2)cn1 [51-106, 1-(4-Fluoro-3-(trifluoromethyl)phenyl)-3-(3-(1-methyl-1H-pyrazol-4-yl)quinoxalin-6-yl)urea]",inhibition at 5 µM,YANK3,≤ 0%
same,inhibition at 5 µM,"LATS2; Lys1, VDTHALYAMKTLR",≤ 0%
same,inhibition at 5 µM,"LATS2; Lys2, DIKPDNILIDLDGHIK",1.4%
same,inhibition at 5 µM,"MAP3K4; Lys1, VYTCISVDTGELMAMKEIR",8.6%
same,inhibition at 5 µM,"MAP3K4; Lys2, DIKGANIFLTSSGLIK",7.1%
same,MAP3K1 inhibition compared to any other kinase in the panel,"MAP3K1; 5 μM, 328 quantified kinases",2.5 fold
same,% Inhibition,"MAP3K1; 5 µM, Lys2, DVKGANLLIDSTGQR",78%
same,inhibition at 5 µM,"MAP3K1; 5 µM, Lys2, DVKGANLLIDSTGQR",78.1%
same,inhibition at 5 µM,GAK,1%
same,inhibition at 5 µM,SRPK2,≤ 0%
same,% Inhibition,"JAK1 domain2; 5 µM, ATP Loop, IGDFGLTKAIETDKEYYTVK",NB (NB = No Binding (≤ 0))
same,inhibition at 5 µM,"JAK1 domain2; Lys1, […]",≤ 0%
same,inhibition at 5 µM,PIK3CB; VFGEDSVGVIFKNGDDLR,1.7%
same,inhibition at 5 µM,PIK3CB; VFGEDSVGVIFKNGDDLRQDMLTLQMLR,31.4%
same,inhibition at 5 µM,"SNRK; Lys1, VAVKVIDK",≤ 0%
same,inhibition at 5 µM,"SNRK; Lys2, DLKPENVVFFEK",0.4%
same,% Inhibition,"CDK2; 5 µM, Lys1, LTGEVVALKK",12%
same,inhibition at 5 µM,"CDK2; Lys1, LTGEVVALKK",12.3%
same,inhibition at 5 µM,"CDK2; Lys2, DLKPQNLLINTEGAIK",≤ 0%
same,inhibition at 5 µM,CK1g3,11.5%
same,inhibition at 5 µM,"CDK7; Lys1, DKNTNQIVAIKK",16.6%
same,inhibition at 5 µM,"CDK7; Lys2, DLKPNNLLLDENGVLK",1.6%
same,inhibition at 5 µM,NEK7,10.3%
same,% Inhibition,"PKCa, PKCb",NB (NB = No Binding (≤ 0))
same,inhibition at 5 µM,STLK6,5.8%
same,% Inhibition,"NEK1; 5 µM, Lys1, QYVIKEINISR",NB (NB = No Binding (≤ 0))
same,inhibition at 5 µM,"NEK1; Lys2, […]",≤ 0%
same,inhibition at 5 µM,ITPK1,≤ 0%
same,inhibition at 5 µM,PLK2,1.4%
same,inhibition at 5 µM,CDK6,≤ 0%
same,inhibition at 5 µM,CaMK1a,≤ 0%
same,% Inhibition,[1],NB (NB = No Binding (≤ 0))
same,inhibition at 5 µM,MAP3K5,11.7%
same,inhibition at 5 µM,PIP4K2C; TLVIKEVSSEDIADMHSNLSNYHQYIVK,21.8%
same,inhibition at 5 µM,PIP4K2C; VKELPTLKDMDFLNK,≤ 0%
same,inhibition at 5 µM,p70S6K,≤ 0%
